Test results as given in the supplement of paper PMC10307832.

Key:
Assay in all cases: relative viability (nuclei count vs DMSO), 5 days (fraction); higher = more cells survive
[1] = compound: NC1(c2ccc(-c3nc4ccn5c(=O)[nH]nc5c4cc3-c3ccccc3)cc2)CCC1 [MK-2206] + Cc1nc(NC(=O)N2CCC[C@H]2C(N)=O)sc1-c1ccnc(C(C)(C)C(F)(F)F)c1 [Alpelisib] (partner 2 µM)
In short: (§1)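 Five library-drug doses in √10 steps were combined with a fixed anchor-drug dose, or a single drug was given alone, by pin tool to lung cancer cell lines in 1536-well plates the day after seeding. Nuclei were stained and counted after 5 days. Relative viability is the nuclei count in treated wells over that in vehicle wells, taken as the median of duplicate plates.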

[2] = compound: CS(=O)(=O)N1CCN(Cc2cc3nc(-c4cccc5[nH]ncc45)nc(N4CCOCC4)c3s2)CC1 [Pictilisib] + O=C(CCCCCCC(=O)Nc1ccccc1)NO [Vorinostat] (partner 1 µM)
In short: as §1

[3] = compound: NC1(c2ccc(-c3nc4ccn5c(=O)[nH]nc5c4cc3-c3ccccc3)cc2)CCC1 [MK-2206] + CCNC(=O)c1noc(-c2cc(C(C)C)c(O)cc2O)c1-c1ccc(CN2CCOCC2)cc1 [Luminespib] (partner 0.01 µM)
In short: as §1

[4] = compound: CS(=O)(=O)N1CCN(Cc2cc3nc(-c4cccc5[nH]ncc45)nc(N4CCOCC4)c3s2)CC1 [Pictilisib] + Cc1cc(Nc2cc(N3CCN(C)CC3)nc(Sc3ccc(NC(=O)C4CC4)cc3)n2)n[nH]1 [Tozasertib] (partner 0.1 µM)
In short: as §1

[5] = compound: CS(=O)(=O)N1CCN(Cc2cc3nc(-c4cccc5[nH]ncc45)nc(N4CCOCC4)c3s2)CC1 [Pictilisib] + Cc1nc(Nc2ncc(C(=O)Nc3c(C)cccc3Cl)s2)cc(N2CCN(CCO)CC2)n1 [Dasatinib] (partner 0.075 µM)
In short: as §1

Cell Line	relative viability ([1]; first compound 0.01 µM)	relative viability ([1]; first compound 0.03162 µM)	relative viability ([1]; first compound 0.3162 µM)	relative viability ([1]; first compound 1 µM)	relative viability ([2]; first compound 0.02 µM)	relative viability ([2]; first compound 0.06325 µM)	relative viability ([2]; first compound 0.6325 µM)	relative viability ([2]; first compound 2 µM)	relative viability ([3]; first compound 0.01 µM)	relative viability ([3]; first compound 0.03162 µM)	relative viability ([3]; first compound 0.3162 µM)	relative viability ([3]; first compound 1 µM)	relative viability ([4]; first compound 0.02 µM)	relative viability ([4]; first compound 0.06325 µM)	relative viability ([4]; first compound 0.6325 µM)	relative viability ([4]; first compound 2 µM)	relative viability ([5]; first compound 0.02 µM)	relative viability ([5]; first compound 0.06325 µM)	relative viability ([5]; first compound 0.6325 µM)	relative viability ([5]; first compound 2 µM)
NCI-H1975	0.657	0.551	0.509	0.487	0.708	0.665	0.386	0.204	0.126	0.199	0.204	0.144	0.821	0.691	0.361	0.107	0.368	0.242	0.105	0.144
NCI-H460	0.481	0.419	0.256	0.231	0.796	0.757	0.842	0.155	0.035	0.0282	0.0298	0.024	0.411	0.401	0.28	0.0523	0.531	0.545	0.205	0.0803
EPLC-272H	0.993	0.851		0.929	0.477	0.403	0.449	0.23	0.585	0.263	0.338	0.323	0.26	0.231	0.206	0.179	0.304	0.323	0.216	0.142
SK-LU-1	1.13	0.979	0.993	0.876	0.857	0.818	0.618	0.511	0.217	0.209	0.211	0.195	0.362	0.304	0.3	0.233	0.159	0.168	0.103	0.109
NCI-H322M	0.864	0.79	0.732	0.701	0.955	0.888	0.741	0.543	0.91	0.95	0.825	0.882	0.494	0.49	0.4	0.282	0.226	0.253	0.271	0.243
NCI-H2405	0.762	0.877	0.728	0.673	1.26	1.06	0.842	0.432	0.713	0.853	0.532	0.559	0.764	0.725	0.663	0.348	0.231	0.217	0.189	0.168
NCI-H1666	0.957	0.89	0.729	0.735	1.09	1.03	0.916	0.867	0.961	1.02	1.13	1.01	0.628	0.599	0.627	0.483	0.805	0.876	0.568	0.523
NCI-H358	0.9	0.837	0.65	0.563	0.816	0.693	0.603	0.264	0.0868	0.829	0.234	0.318	0.0959	0.104	0.103	0.0838	0.147	0.148	0.123	0.0945
H3255	0.694	0.748	0.53	0.6	0.813	0.779	0.788	0.414	0.872	1.12	0.754	0.835	0.601	0.474	0.648	0.486	0.447	0.31	0.252	0.213
LCLC-103H	1.02	0.977	0.933	0.826	0.84	0.737	0.634	0.469	0.983	1.06	0.975	0.89	0.636	0.456	0.339	0.26	0.457	0.547	0.367	0.142
NCI-H2347	0.967	1.11	1.11	0.973	0.669	0.607	0.416	0.321	0.46	0.399	0.426	0.721	0.512	0.517	0.462	0.285	0.321	0.297	0.337	0.215
LK-2	0.977	1.42	1.13	1.06	0.292	0.291	0.214	0.139	0.173	0.199	0.212	0.17	0.209	0.173	0.154	0.158	0.278	0.324	0.185	0.185
HCC-15	0.836	0.884	0.859	0.832	0.841	0.818	0.707	0.535	0.404	0.232	0.413	0.292	0.37	0.379	0.275	0.153	0.639	0.627	0.492	0.301
SW 1573	0.763	0.817	0.607	0.613	0.767	0.733	0.35	0.217	0.275	0.192	0.201	0.184	0.164	0.174	0.146	0.137	0.485	0.524	0.288	0.161
NCI-H838	1.02	1.02	1.01	0.943	0.731	0.632	0.648	0.53	0.288	0.303	0.244	0.282	0.266	0.218	0.242	0.149	0.346	0.277	0.279	0.217
RERF-LC-KJ	0.922	0.802	0.663	0.697	0.732	0.699	0.573	0.461	1.27	1.11	0.971	1.06	0.5	0.529	0.477	0.352	0.802	0.811	0.687	0.451
